Laboratory results taken from patent US6881553B2 (priority 1999, dated 2005).
pKi: −log10 of the molar value. Converted amounts (≈) assume the structure as drawn. “And” between values parts separate entries of the source, which are not always exact repeats. Equal values may be shown once. “Also recorded” adds a separate entry of the source. Read-outs that look alike come from different tables or passages of the source.

Assays:
[1] = tested on: L. pneumophila F4b; type: cell-based, Legionella pneumophila; details: disks 2.5 mg or 1.0 mg, BCYE plates, four days
[2] = tested on: L. pneumophila Philadelphia 1; assay: microbe, parasite or virus in culture; type: cell-based, Legionella pneumophila; details: for inhibition of 14C-acetate incorporation: 0.5 mM
[3] = tested on: L. pneumophila Philadelphia 1; type: cell-based, Legionella pneumophila; details: disks 2.5 mg or 1.0 mg, BCYE plates, four days
[4] = tested on: L. pneumophila lysates; type: biochemical, Legionella pneumophila; details: for inhibition of 14C-acetate incorporation, lysates compared with whole cells: 0.4 mM or 2.0 mM
[5] = tested on: L. pneumophila; type: cell-based, Legionella pneumophila; details: GFZ 30 μg/ml, three days on CYE agar
[6] = tested on: L. pneumophila in human monocyte-derived macrophages; type: cell-based, Legionella pneumophila
[7] = tested on: Legionella sp. strains; type: cell-based
[8] = mouse, in vivo; cited from earlier work
[9] = tested on: Pseudomonas aeruginosa; type: cell-based
[10] = tested on: L. pneumophila in PMA-differentiated HL-60 cells; type: cell-based, Legionella pneumophila
[11] = tested on: HL-60 cells
[12] = tested on: L. pneumophila F4b; assay: microbe, parasite or virus in culture; type: cell-based; details: Legionella pneumophila, read-out: concentration giving 50% inhibition of 14C-acetate incorporation
[13] = tested on: Listeria monocytogenes in mouse J774 macrophage-like cells; details: GFZ in combination with norfloxacin; cited from earlier work
[14] = tested on: M. tuberculosis strains; assay: M. tuberculosis susceptibility assay on Middlebrook agar; type: cell-based, Mycobacterium tuberculosis; details: 27 strains, OADC Middlebrook agar, three weeks 37° C.
[15] = tested on: J774 cells; details: treatment of J774 cells with GFZ; cited from earlier work
[16] = tested on: atypical mycobacteria; assay: Zone of inhibition assay; type: cell-based; details: standard laboratory media
[17] = tested on: L. pneumophila Philadelphia 1; assay: microbe, parasite or virus in culture; type: cell-based, Legionella pneumophila; details: for MIC90: Legionella pneumophila, 48 h, read-out: MIC which inhibited 90% of L. pneumophila growth (MIC90)
[18] = Solubility observations in media; type: physicochemical; details: aqueous medium
[19] = tested on: Nocardia sp.; type: cell-based
[20] = tested on: Saccharomyces cerevisiae; assay: Zone of inhibition assay on SAB medium
[21] = tested on: bacterial species; type: cell-based
[22] = tested on: M. tuberculosis strains; assay: M. tuberculosis 7H9 broth assay; type: cell-based, Mycobacterium tuberculosis; details: 21 days, turbidity
[23] = tested on: Candida albicans; assay: Zone of inhibition assay on SAB medium
[24] = molecular target: M. tuberculosis InhA (Mycobacterium tuberculosis, UniProt P9WGR1); details: pH 7.4
M. tuberculosis InhA, sequence (P9WGR1 whole entry, looked up): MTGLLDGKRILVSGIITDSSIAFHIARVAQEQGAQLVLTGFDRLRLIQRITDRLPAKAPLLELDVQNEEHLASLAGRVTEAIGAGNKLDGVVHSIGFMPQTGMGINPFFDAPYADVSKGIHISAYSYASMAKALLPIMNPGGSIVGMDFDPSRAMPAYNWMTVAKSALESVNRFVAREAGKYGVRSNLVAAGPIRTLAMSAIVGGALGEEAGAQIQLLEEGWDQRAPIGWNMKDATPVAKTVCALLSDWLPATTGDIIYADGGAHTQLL

[25] = tested on: L. pneumophila FabT; type: biochemical, Legionella pneumophila; details: dodecenoyl-CoA substrate, 100 μM NADH, pH 7.4
[26] = tested on: L. pneumophila FabX; type: biochemical, Legionella pneumophila; details: dodecenoyl-CoA substrate, 100 μM NADH, pH 7.4
[27] = molecular target: M. tuberculosis InhA enoyl reductase (Mycobacterium tuberculosis, UniProt P9WGR1); assay: biochemical
M. tuberculosis InhA enoyl reductase, sequence (P9WGR1 whole entry, looked up): as above

[28] = molecular target: L. pneumophila FabX enoyl reductase (His-tagged FabX); type: biochemical; details: competitive with regard to DCA (dodecenoyl-CoA) substrate; 100 μM NADH, 100 mM NaPO4 pH 7.4; value (+/- spread)
[29] = molecular target: L. pneumophila FabT enoyl reductase (His-tagged FabT) (Legionella pneumophila, UniProt Q5ZUE4); assay: biochemical
L. pneumophila FabT enoyl reductase (His-tagged FabT), sequence (Q5ZUE4 1-268): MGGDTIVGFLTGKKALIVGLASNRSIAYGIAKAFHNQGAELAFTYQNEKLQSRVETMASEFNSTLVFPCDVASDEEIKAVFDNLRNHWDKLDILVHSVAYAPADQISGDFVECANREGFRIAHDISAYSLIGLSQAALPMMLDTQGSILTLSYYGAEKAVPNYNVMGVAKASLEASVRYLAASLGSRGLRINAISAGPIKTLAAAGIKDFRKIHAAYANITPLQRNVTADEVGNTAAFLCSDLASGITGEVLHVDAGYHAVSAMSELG

[30] = tested on: L. pneumophila; details: cited from earlier work
[31] = tested on: L. pneumophila; details: cited from earlier work; remark: listed apart in the source

O=C(O)c1ccccc1O [2-hydroxybenzoic acid]
antibacterial activity by zone of inhibition [1]: more sensitive to 2-hydroxybenzoic acid (salicylic acid) than GFZ
inhibition of 14C-acetate incorporation [2]: some efficacy
antibacterial activity by zone of inhibition [3]: more sensitive to 2-hydroxybenzoic acid (salicylic acid) than GFZ

O=C(O)CCc1ccc(O)c(O)c1 [3,4-HPA, 3,4-dihydroxyphenyl propionic acid]
antibacterial activity by zone of inhibition [1]: equally inhibitory
antibacterial activity by zone of inhibition [3]: equally inhibitory

O=C(O)CCc1ccc(O)cc1 [Analog 4-HPA, 4-hydroxyphenylpropionic acid]
antibacterial activity by zone of inhibition [1]: equally inhibitory
antibacterial activity by zone of inhibition [3]: equally inhibitory

C/C=C/C/C=C/CCC(=O)[C@H]1O[C@H]1C(N)=O [Cerulenin, cerulenin]
inhibition of 14C-acetate incorporation relative to GFZ at 100 μg/ml ([2]; 100 μg/ml (0.45 mM)): slightly better inhibitor
inhibition of 14C-acetate incorporation, lysates compared with whole cells [4]: less effective inhibitor

Cc1ccc(C)c(OCCCC(C)(C)C(=O)O)c1 [GFZ, gemfibrozil]
change in amount of 3-HB-propyl ester [5]: fifty-fold increase
intracellular growth of L. pneumophila in human macrophages ([6]; 0.4 mM (100 μg/ml)): inhibited the intracellular growth
intracellular growth of L. pneumophila in human macrophages ([6]; 0.6 mM compared with 0.4 mM): no further reduction in L. pneumophila colonies
sensitivity of Legionella sp. strains (zone of inhibition) [7]: All 39 Legionella sp. strains were sensitive
LD50 [8]: 250 mg/20 gm mouse per day
growth inhibition [9]: did not inhibit the growth
L. pneumophila intracellular growth ([10]; GFZ 0.4 mM (100 μg/ml)): inhibition of L. pneumophila intracellular growth
concentration required to inhibit intracellular growth within macrophages ([10]; macrophages): 100 µg/mL
time after infection at which inhibition of bacterial growth was seen ([10]; single-round growth assay with gentamicin, GFZ 0.4 mM (100 μg/ml)): ≤ 8 h
viability of uninfected HL-60 cells [11]: did not affect the viability
protection of infected HL-60 cells from L. pneumophila cytolytic effects ([11]; 100 μg/ml, infection multiplicity of 0.1 bacteria/cell, 5 days): protected infected HL-60 cells
IC50 [12]: 100 µg/mL and 400 µM
reduction of the norfloxacin concentration required to block intracellular growth [13]: fourfold
concentration that completely inhibited growth of all M. tuberculosis strains [14]: 100 to 200 µg/mL
increase of intracellular concentration of norfloxacin [15]: fourfold
susceptibility [16]: resistant
bacteriostatic or bacteriocidal effect ([17]; 10-200 μg/ml, aliquots of MIC cultures plated on CYE): bacteriostatic
MIC90 [17]: 10 µg/mL (≈ 39.9 µM)
IC50 ([2]; Legionella pneumophila, 0.25 h, read-out: concentration giving fifty percent inhibition of 14C-acetate incorporation): 25 µg/mL (≈ 99.9 µM)
IC50 ([2]; Legionella pneumophila, 1 h, read-out: concentration giving 50% inhibition of 14C-acetate incorporation): 10 µg/mL and 40 µM
IC50 ([2]; Legionella pneumophila, read-out: concentration giving 50% inhibition of 14C-acetate incorporation): 100 µM and 25 µg/mL
inhibition at 400 µM ([2]; Legionella pneumophila, read-out: inhibition of 14C-acetate incorporation into TCA precipitable material in whole cells): > 90%
lowest concentration that inhibited 14C-acetate incorporation ([2]; within 15 minutes): 10 µg/mL
inhibition of 14C-acetate incorporation into TCA precipitable material in a lysate ([4]; 0.4 mM): 15%
inhibition of 14C-acetate incorporation, lysates compared with whole cells [4]: not as effective an inhibitor in these lysates as it was in whole cells
inhibition of 14C-acetate incorporation in lysate, comparison between inhibitors ([4]; 2 mM): not as potent as cerulenin in lysates
solubility in relation to pH [18]: insoluble at an acid pH; also recorded: decreases as pH decreases
zone of inhibition [19]: 40-60 mm
susceptibility ([20]; SAB medium buffered to pH 7): susceptible
zone of inhibition ([20]; unbuffered medium): No zone of inhibition
sensitivity of nonpathogenic bacterial strains [21]: four of the eight strains tested demonstrated sensitivity
share of bacterial species tested that demonstrated susceptibility [21]: 33%
growth of M. tuberculosis strains in 7H9 broth [22]: inhibits the growth
susceptibility ([23]; SAB medium buffered to pH 7): susceptible
zone of inhibition ([23]; unbuffered medium): No zone of inhibition

Cc1ccc(C)c(OCCCC(C)(C)C(=O)SCCNC(=O)CCNC(=O)[C@H](O)C(C)(C)COP(=O)(O)OP(=O)(O)OC[C@H]2O[C@@H](n3cnc4c(N)ncnc43)[C@H](O)[C@@H]2OP(=O)(O)O)c1 [GFZ-CoA]
mode of inhibition of enoyl reductase activity [24]: competitive inhibitor
mode of inhibition of enoyl reductase activity [25]: competitive inhibitor
mode of inhibition of enoyl reductase activity [26]: competitive inhibitor

Cc1ccc(C)c(OCCCC(C)(C)C(=O)SCCNC(=O)CCNC(=O)[C@H](O)C(C)(C)COP(=O)(O)OP(=O)(O)OC[C@H]2O[C@@H](n3cnc4c(N)ncnc43)[C@H](O)[C@@H]2OP(=O)(O)O)c1 [GFZ]
pKi [27]: 3.68
pKi [28]: 3.91
pKi [29]: 3.90

Nc1ccc(C(=O)O)c(O)c1 [P-aminosalicyclic acid, para-aminosalicylate]
inhibition of 14C-acetate incorporation [2]: some efficacy

CC(C)(Oc1ccc(CCNC(=O)c2ccc(Cl)cc2)cc1)C(=O)O [bezafibrate]
MIC90 [17]: 250 µg/mL (≈ 691 µM)

CCOC(=O)C(C)(C)Oc1ccc(Cl)cc1 [clofibrate]
effectiveness at inhibiting intracellular growth relative to GFZ [6]: much less effective than GFZ
intracellular growth of L. pneumophila in human macrophages ([6]; 1 mM): able to slow L. pneumophila growth
MIC which inhibited 90% of L. pneumophila growth (MIC90) ([17]; AYE broth, 48 hrs at 37° C.): 100 µg/mL
inhibition of 14C-acetate incorporation [2]: some efficacy

CC[C@H]1OC(=O)[C@H](C)[C@@H](O[C@H]2C[C@@](C)(OC)[C@@H](O)[C@H](C)O2)[C@H](C)[C@@H](O[C@@H]2O[C@H](C)C[C@H](N(C)C)[C@H]2O)[C@](C)(O)C[C@@H](C)C(=O)[C@H](C)[C@@H](O)[C@]1(C)O [erythromycin]
concentration inhibiting extracellular growth [30]: 0.2 µg/mL

CO[C@H]1/C=C/O[C@@]2(C)Oc3c(C)c(O)c4c(O)c(c(/C=N/N5CCN(C)CC5)c(O)c4c3C2=O)NC(=O)/C(C)=C\C=C\[C@H](C)[C@H](O)[C@@H](C)[C@@H](O)[C@@H](C)[C@H](OC(C)=O)[C@@H]1C [rifampin]
concentration inhibiting extracellular growth [30]: 0.002 µg/mL
concentration inhibiting intracellular growth [31]: 0.1 µg/mL
